Measured values published in patent publication US20100298141A1, “SUBSTITUTED PYRIDINE N-OXIDE HERBICIDES” (E. I. DU PONT DE NEMOURS AND COMPANY, priority 2007, published 2010).

Assays:
winter wheat (TRZAW) [1] = assay: Test H preemergence mixtures of compound 2 with crop safeners; assay type: in vivo, Triticum aestivum; design: key to TRZAW Obsd. (observed effect): observed % effect, visually evaluated vs controls; settings: Test H, alone
From the text: (§1) Seeds of test plants consisting of winter wheat (TRZAW, Triticum aestivum), corn (ZEAMD, Zea mays cv. ‘Pioneer 33G26’), giant foxtail (SETFA, Setaria faberi), and Italian ryegrass (LOLMU, Lolium multiflorum) were planted into a blend of loam soil and sand and treated preemergence with a directed soil spray using test chemicals formulated in a non-phytotoxic solvent mixture that included a surfactant. Seeds of small-seeded species were planted about 1 cm deep; larger seeds were planted about 2.5 cm deep. […] Balanced fertilizer was applied through the watering system. Treatments consisted of Compound 2 and the above mentioned safeners alone and in combination using a spray volume of 457 L/ha. Each treatment was replicated four times. Treated plants and controls were maintained in a greenhouse for 14 to 21 days, after which time all species were compared to controls and visually evaluated. […] A dash (-) response means no test result. Colby's Equation was used to determine the herbicidal effects expected from the mixtures. Colby's Equation (Colby, S. […] wherein • Pa+b is the percentage effect of the mixture expected from additive contribution of the individual components, • Pa is the observed percentage effect of the first active ingredient at the same use rate as in the mixture, and • Pb is the observed percentage effect of the second active ingredient at the same use rate as in the mixture.

corn (ZEAMD) [2] = assay: as above; assay type: in vivo, Zea mays cv. ‘Pioneer 33G26’; design: key to ZEAMD Obsd. (observed effect): observed % effect, visually evaluated vs controls; settings: Test H, alone
From the text: as §1

giant foxtail (SETFA) = assay: as above; assay type: in vivo, Setaria faberi; design: key to SETFA Obsd. (observed effect): observed % effect, visually evaluated vs controls; settings: Test H, alone
From the text: as §1

Italian ryegrass (LOLMU) [3] = assay: as above; assay type: in vivo, Lolium multiflorum; design: key to LOLMU Obsd. (observed effect): observed % effect, visually evaluated vs controls; settings: Test H, alone
From the text: as §1

winter wheat (TRZAW) [4] = assay: Test I preemergence mixtures of compound 2 with crop safeners; assay type: in vivo, Triticum aestivum; settings: alone
From the text: (§2) Seeds of test plants consisting of winter wheat (TRZAW, Triticum aestivum), corn (ZEAMD, Zea mays cv. ‘Pioneer 33G26’), wild oat (AVEFA, Avena fatua), and Italian ryegrass (LOLMU, Lolium multiflorum) were planted into a blend of loam soil and sand and treated preemergence with a directed soil spray using test chemicals formulated in a non-phytotoxic solvent mixture that included a surfactant. Seeds of small-seeded species were planted about 1 cm deep; larger seeds were planted about 2.5 cm deep. […] Balanced fertilizer was applied through the watering system. Treatments consisted of Compound 2 and the above mentioned safeners alone and in combination using a spray volume of 457 L/ha. Each treatment was replicated four times. Treated plants and controls were maintained in a greenhouse for 14 to 21 days, after which time all species were compared to controls and visually evaluated. […] A dash (-) response means no test result. Colby's Equation was used to determine the herbicidal effects expected from the mixtures. Colby's Equation (Colby, S. […] Pa+b=Pa+Pb−(PaPb/100) wherein • Pa+b is the percentage effect of the mixture expected from additive contribution of the individual components, • Pa is the observed percentage effect of the first active ingredient at the same use rate as in the mixture, and • Pb is the observed percentage effect of the second active ingredient at the same use rate as in the mixture.

corn (ZEAMD) [5] = assay: as above; assay type: in vivo, Zea mays cv. ‘Pioneer 33G26’; settings: alone
From the text: as §2

wild oat (AVEFA) = assay: as above; assay type: in vivo, Avena fatua; settings: alone
From the text: as §2

Italian ryegrass (LOLMU) [6] = assay: as above; assay type: in vivo, Lolium multiflorum; settings: alone
From the text: as §2

winter wheat (TRZAW) [7] = assay: Test J preemergence mixtures of Compound 2 with crop safeners; assay type: in vivo, Triticum aestivum
From the text: as §1, with “aestivum) and” for “aestivum),”, “33G26’)” for “33G26’), giant foxtail (SETFA, Setaria faberi), and Italian ryegrass (LOLMU, Lolium multiflorum)”, “surfactant.” for “surfactant. Seeds of small-seeded species were planted about 1 cm deep; larger seeds were planted about 2.5 cm deep.”, “times.” for “times. Treated plants and controls were maintained in a greenhouse for 14 to 21 days, after which time all species were compared to controls and visually evaluated.”, “and” for “and •”

corn (ZEAMD) [8] = assay: as above; assay type: in vivo, Zea mays cv. ‘Pioneer 33G26’
From the text: as §1, with “aestivum) and” for “aestivum),”, “33G26’)” for “33G26’), giant foxtail (SETFA, Setaria faberi), and Italian ryegrass (LOLMU, Lolium multiflorum)”, “surfactant.” for “surfactant. Seeds of small-seeded species were planted about 1 cm deep; larger seeds were planted about 2.5 cm deep.”, “times.” for “times. Treated plants and controls were maintained in a greenhouse for 14 to 21 days, after which time all species were compared to controls and visually evaluated.”, “and” for “and •”

SMILES: CCOC(=O)C1=NOC(c2ccccc2)(c2ccccc2)C1 [isoxadifen-ethyl]
- TRZAW Obsd. (observed effect) (winter wheat (TRZAW) [1]; 8 g a.i./ha): 0
- TRZAW Obsd. (observed effect) (winter wheat (TRZAW) [1]; 16 g a.i./ha): 0
- TRZAW Obsd. (observed effect) (winter wheat (TRZAW) [1]; 31 g a.i./ha): 0
- ZEAMD Obsd. (observed effect) (corn (ZEAMD) [2]; 8 g a.i./ha): 0
- ZEAMD Obsd. (observed effect) (corn (ZEAMD) [2]; 16 g a.i./ha): 0
- ZEAMD Obsd. (observed effect) (corn (ZEAMD) [2]; 31 g a.i./ha): 0
- SETFA Obsd. (observed effect) (giant foxtail (SETFA); 8 g a.i./ha): 0
- SETFA Obsd. (observed effect) (giant foxtail (SETFA); 16 g a.i./ha): 0
- SETFA Obsd. (observed effect) (giant foxtail (SETFA); 31 g a.i./ha): 3
- LOLMU Obsd. (observed effect) (Italian ryegrass (LOLMU) [3]; 8 g a.i./ha): 0
- LOLMU Obsd. (observed effect) (Italian ryegrass (LOLMU) [3]; 16 g a.i./ha): 0
- LOLMU Obsd. (observed effect) (Italian ryegrass (LOLMU) [3]; 31 g a.i./ha): 0
- TRZAW Obsd. (observed effect) (winter wheat (TRZAW) [4]; 4 g a.i./ha): 0
- TRZAW Obsd. (observed effect) (winter wheat (TRZAW) [4]; 8 g a.i./ha): 0
- ZEAMD Obsd. (observed effect) (corn (ZEAMD) [5]; 4 g a.i./ha): 0
- ZEAMD Obsd. (observed effect) (corn (ZEAMD) [5]; 8 g a.i./ha): 0
- AVEFA Obsd. (observed effect) (wild oat (AVEFA); 4 g a.i./ha): 0
- AVEFA Obsd. (observed effect) (wild oat (AVEFA); 8 g a.i./ha): 0
- LOLMU Obsd. (observed effect) (Italian ryegrass (LOLMU) [6]; 4 g a.i./ha): 0
- LOLMU Obsd. (observed effect) (Italian ryegrass (LOLMU) [6]; 8 g a.i./ha): 0
- Observed effect (Obsd.), TRZAW (winter wheat (TRZAW) [7]; safener alone at 8 g a.i./ha): 0%
- Observed effect (Obsd.), TRZAW (winter wheat (TRZAW) [7]; safener alone at 31 g a.i./ha): 0%
- Observed effect (Obsd.), TRZAW (winter wheat (TRZAW) [7]; safener alone at 500 g a.i./ha): 0%
- Observed effect (Obsd.), ZEAMD (corn (ZEAMD) [8]; safener alone at 8 g a.i./ha): 0%
- Observed effect (Obsd.), ZEAMD (corn (ZEAMD) [8]; safener alone at 31 g a.i./ha): 0%
- Observed effect (Obsd.), ZEAMD (corn (ZEAMD) [8]; safener alone at 500 g a.i./ha): 0%
- Observed effect (Obsd.), ZEAMD (corn (ZEAMD) [8]; single active ingredient alone at 125 g a.i./ha): 0%

SMILES: O=C1OC(=O)c2cccc3cccc1c23 [naphthalic anhydride, 1,8-naphthalic anhydride]
- TRZAW Obsd. (observed effect) (winter wheat (TRZAW) [1]; 8 g a.i./ha): 3
- TRZAW Obsd. (observed effect) (winter wheat (TRZAW) [1]; 16 g a.i./ha): 0
- TRZAW Obsd. (observed effect) (winter wheat (TRZAW) [1]; 31 g a.i./ha): 0
- ZEAMD Obsd. (observed effect) (corn (ZEAMD) [2]; 8 g a.i./ha): 0
- ZEAMD Obsd. (observed effect) (corn (ZEAMD) [2]; 16 g a.i./ha): 0
- ZEAMD Obsd. (observed effect) (corn (ZEAMD) [2]; 31 g a.i./ha): 0
- SETFA Obsd. (observed effect) (giant foxtail (SETFA); 8 g a.i./ha): 0
- SETFA Obsd. (observed effect) (giant foxtail (SETFA); 16 g a.i./ha): 0
- SETFA Obsd. (observed effect) (giant foxtail (SETFA); 31 g a.i./ha): 0
- LOLMU Obsd. (observed effect) (Italian ryegrass (LOLMU) [3]; 8 g a.i./ha): 13
- LOLMU Obsd. (observed effect) (Italian ryegrass (LOLMU) [3]; 16 g a.i./ha): 0
- LOLMU Obsd. (observed effect) (Italian ryegrass (LOLMU) [3]; 31 g a.i./ha): 0

SMILES: C=CCN(CC=C)C(=O)C(Cl)Cl [dichlormid]
- TRZAW Obsd. (observed effect) (winter wheat (TRZAW) [1]; 8 g a.i./ha): 0
- TRZAW Obsd. (observed effect) (winter wheat (TRZAW) [1]; 16 g a.i./ha): 0
- TRZAW Obsd. (observed effect) (winter wheat (TRZAW) [1]; 31 g a.i./ha): 0
- ZEAMD Obsd. (observed effect) (corn (ZEAMD) [2]; 8 g a.i./ha): 0
- ZEAMD Obsd. (observed effect) (corn (ZEAMD) [2]; 16 g a.i./ha): 0
- ZEAMD Obsd. (observed effect) (corn (ZEAMD) [2]; 31 g a.i./ha): 0
- SETFA Obsd. (observed effect) (giant foxtail (SETFA); 8 g a.i./ha): 0
- SETFA Obsd. (observed effect) (giant foxtail (SETFA); 16 g a.i./ha): 0
- SETFA Obsd. (observed effect) (giant foxtail (SETFA); 31 g a.i./ha): 3
- LOLMU Obsd. (observed effect) (Italian ryegrass (LOLMU) [3]; 8 g a.i./ha): 0
- LOLMU Obsd. (observed effect) (Italian ryegrass (LOLMU) [3]; 16 g a.i./ha): 0
- LOLMU Obsd. (observed effect) (Italian ryegrass (LOLMU) [3]; 31 g a.i./ha): 0
- TRZAW Obsd. (observed effect) (winter wheat (TRZAW) [4]; 4 g a.i./ha): 0
- TRZAW Obsd. (observed effect) (winter wheat (TRZAW) [4]; 8 g a.i./ha): 0
- ZEAMD Obsd. (observed effect) (corn (ZEAMD) [5]; 4 g a.i./ha): 0
- ZEAMD Obsd. (observed effect) (corn (ZEAMD) [5]; 8 g a.i./ha): 0
- AVEFA Obsd. (observed effect) (wild oat (AVEFA); 4 g a.i./ha): 0
- AVEFA Obsd. (observed effect) (wild oat (AVEFA); 8 g a.i./ha): 0
- LOLMU Obsd. (observed effect) (Italian ryegrass (LOLMU) [6]; 4 g a.i./ha): 0
- LOLMU Obsd. (observed effect) (Italian ryegrass (LOLMU) [6]; 8 g a.i./ha): 0
- Observed effect (Obsd.), TRZAW (winter wheat (TRZAW) [7]; safener alone at 8 g a.i./ha): 0%
- Observed effect (Obsd.), TRZAW (winter wheat (TRZAW) [7]; safener alone at 31 g a.i./ha): 0%
- Observed effect (Obsd.), ZEAMD (corn (ZEAMD) [8]; safener alone at 8 g a.i./ha): 0%
- Observed effect (Obsd.), ZEAMD (corn (ZEAMD) [8]; safener alone at 31 g a.i./ha): 0%
- Observed effect (Obsd.), ZEAMD (corn (ZEAMD) [8]; safener alone at 500 g a.i./ha): 0%
